The record followed here is US20210284618A1, “FURANOCHALCONES AS INHIBITORS OF CYP1A1, CYP1A2 AND CYP1B1 FOR CANCER CHEMOPREVENTION” (Council of Scientific & Industrial Research, priority 2016, published 2021).

pIC50: −log10 of the molar value. Several values for one entry are separate records, joined by “and”; a condition that tells them apart may be missing. Equal values may be shown once. Some results are limits rather than exact numbers.

The term inhibition denotes the drop in the measured response relative to a control, in per cent. For orientation: pIC50 means −log10 of the IC50, conventionally taken in molar units. Broadly, the melting point is the temperature of the solid-liquid transition.

The target in one data set is T1, CYP2C8 (Homo sapiens, UniProt P10632).
T1 construct: host or cells: yeast microsomes (Saccharosomes)
T1 sequence (P10632 1-490): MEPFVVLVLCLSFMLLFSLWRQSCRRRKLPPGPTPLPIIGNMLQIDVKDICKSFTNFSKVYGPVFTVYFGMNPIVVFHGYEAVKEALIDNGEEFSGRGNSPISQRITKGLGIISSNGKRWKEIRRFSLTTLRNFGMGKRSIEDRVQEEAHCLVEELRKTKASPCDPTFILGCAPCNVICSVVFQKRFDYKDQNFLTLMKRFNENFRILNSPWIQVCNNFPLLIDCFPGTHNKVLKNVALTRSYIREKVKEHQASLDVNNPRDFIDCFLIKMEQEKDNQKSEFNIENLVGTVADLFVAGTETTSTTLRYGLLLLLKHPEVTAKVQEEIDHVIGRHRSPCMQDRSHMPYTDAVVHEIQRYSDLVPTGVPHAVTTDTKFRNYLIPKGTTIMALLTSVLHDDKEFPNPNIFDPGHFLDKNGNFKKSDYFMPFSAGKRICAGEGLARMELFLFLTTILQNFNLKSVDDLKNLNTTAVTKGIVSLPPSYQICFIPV
The data set is described as follows: CYP2C8 inhibition in Saccharosomes. Format: biochemical. The following applies: Saccharosomes containing CYP2C8.

The next data set concerns the target T2, CYP1A1 (Homo sapiens, UniProt P04798).
T2 construct: host or cells: yeast microsomes (Saccharosomes)
T2 sequence (P04798 1-512): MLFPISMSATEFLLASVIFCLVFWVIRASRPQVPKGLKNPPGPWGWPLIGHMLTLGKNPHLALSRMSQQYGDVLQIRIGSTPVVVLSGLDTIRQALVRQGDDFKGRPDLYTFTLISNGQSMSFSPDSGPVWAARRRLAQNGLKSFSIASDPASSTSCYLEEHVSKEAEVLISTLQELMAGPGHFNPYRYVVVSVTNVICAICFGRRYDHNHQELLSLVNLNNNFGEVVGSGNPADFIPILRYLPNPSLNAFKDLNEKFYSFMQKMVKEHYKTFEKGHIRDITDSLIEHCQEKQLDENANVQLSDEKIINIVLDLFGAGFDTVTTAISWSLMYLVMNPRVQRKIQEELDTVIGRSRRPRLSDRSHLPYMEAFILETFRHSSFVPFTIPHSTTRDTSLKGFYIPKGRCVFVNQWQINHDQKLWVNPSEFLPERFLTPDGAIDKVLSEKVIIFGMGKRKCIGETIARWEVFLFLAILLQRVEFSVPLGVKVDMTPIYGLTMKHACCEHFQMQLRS
Nature of the data set: In-vitro CYP450 1A1 enzyme inhibition in Saccharosomes. Format: biochemical. On the procedure:
Example 23. In-vitro CYP450 1A1 enzyme inhibition in Saccharosomes™: The screening method utilizes 384-well microplates to rapidly ascertain relative percentage inhibition of CYP1A1 by a library of compounds. Each reaction was performed in black, clear-bottomed 384-well microplates. A reaction volume of 50 μl comprised of 0.5 pmol of the cytochrome P450 CYP1A1 (Saccharosomes), 5 μM of ethoxyresorufin substrate (which contributes 0.05% DMSO to the well), 10 μM of potential inhibitor test article (which contributes 0.5% DMSO to the well), A P450 reductase NADPH regenerating system (1.3 mM NADP+, 3.3 mM glucose-6-0.02 units phosphate and glucose-6-Phosphate dehydrogenase), potassium phosphate buffer (final well concentration 100 mM, pH 7.4) and water. Very small quantities of magnesium chloride and sodium citrate are added to the NADPH regenerating system, in line with standard published protocols. The potential inhibitor (test article) was pre-incubated with CYP1A1 of at least 20 minutes at 30° C. After this period, the remainder of the reagents required in the assay was added to initiate the process. The reaction mixture was incubated for another 20 minutes at 30° C. The reaction was stopped by adding an 80% acetonitrile, 20% 0.5 M Tris solution. The reactions were monitored using the Biotek Synergy HT plate reader by measuring the endpoint reaction at Excitation 530/(25 bandwidth) & Emission 590/(20 bandwidth) using a gain/sensitivity setting of 60. The mean of the quadruplicates of the negative control (solvent inactivated CYP1A1) was deducted from the mean of potential inhibitor (test article) samples. The percentage was then derived relative to the mean of the wells without inhibitor.
(§1) Example 25. IC50 determination for best compound against CYP1A1, CYP1B1 and other CYPs in Saccharosomes. Compounds were serially diluted to six different concentrations with 10% DMSO in a Sero-Well white microplate. The experiment was performed in a similar way as described above in examples 23 and 24.

The target of a further data set is T3, CYP2C18 (Homo sapiens, UniProt P33260).
T3 construct: host or cells: yeast microsomes (Saccharosomes)
T3 sequence (P33260 26-490): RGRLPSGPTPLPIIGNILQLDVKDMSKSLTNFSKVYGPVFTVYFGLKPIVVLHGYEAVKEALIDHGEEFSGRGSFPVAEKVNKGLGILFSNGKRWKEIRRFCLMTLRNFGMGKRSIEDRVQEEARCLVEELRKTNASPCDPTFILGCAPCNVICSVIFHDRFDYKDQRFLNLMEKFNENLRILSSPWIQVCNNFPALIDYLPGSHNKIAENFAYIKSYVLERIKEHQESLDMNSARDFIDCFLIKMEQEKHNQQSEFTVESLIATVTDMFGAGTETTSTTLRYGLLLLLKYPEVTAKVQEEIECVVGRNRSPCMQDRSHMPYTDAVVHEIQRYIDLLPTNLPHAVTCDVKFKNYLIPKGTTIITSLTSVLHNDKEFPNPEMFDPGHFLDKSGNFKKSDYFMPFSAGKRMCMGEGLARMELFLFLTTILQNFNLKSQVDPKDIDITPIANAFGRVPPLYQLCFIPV
The data set is described as follows: CYP2C18 inhibition in Saccharosomes. It is filed as biochemical. The note with it: Saccharosomes containing CYP2C18.

The next data set concerns the target T4, CYP2D6 (Homo sapiens, UniProt P10635).
T4 construct: host or cells: yeast microsomes (Saccharosomes)
The data set is described as follows: CYP2D6 inhibition in Saccharosomes. It is filed as biochemical. Here is the method:
as §1

T4 sequence (P10635 whole entry): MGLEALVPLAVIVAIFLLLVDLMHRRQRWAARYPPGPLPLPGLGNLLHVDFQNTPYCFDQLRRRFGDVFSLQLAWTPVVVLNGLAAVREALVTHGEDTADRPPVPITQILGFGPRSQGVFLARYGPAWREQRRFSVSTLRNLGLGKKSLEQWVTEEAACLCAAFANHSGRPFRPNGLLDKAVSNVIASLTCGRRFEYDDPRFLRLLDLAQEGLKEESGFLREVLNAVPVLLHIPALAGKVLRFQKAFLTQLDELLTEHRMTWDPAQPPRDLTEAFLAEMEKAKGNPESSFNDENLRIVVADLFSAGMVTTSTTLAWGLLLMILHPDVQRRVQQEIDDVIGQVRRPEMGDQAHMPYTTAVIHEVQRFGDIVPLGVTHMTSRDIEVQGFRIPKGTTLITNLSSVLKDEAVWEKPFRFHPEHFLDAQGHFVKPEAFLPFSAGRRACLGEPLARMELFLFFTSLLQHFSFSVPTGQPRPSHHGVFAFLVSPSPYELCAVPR

In the case of `COc1c(C(=O)/C=C/c2cccnc2)c(O)c(OC)c2occc12` [Compound 8, 3-(4,7-dimethoxy-6-hydroxybenzofuran-5-yl)-1-(pyridin-3-yl)-3-oxopropene], the melting point was in the range of 112 to 114 °C. At CYP2C8, this molecule showed an inhibition at 20 µM of 24%. Further, the pIC50 at CYP1A1 is 6.47. At CYP1A1 (10 μM test compound, 5 μM ethoxyresorufin), the “% inhibition of CYP1A1 in Saccharosomes at 10 μM” value was 97% and 97.2%. Also, the inhibition at 20 min, 10 μM on CYP1A1 (human, Saccharosomes containing CYP1A1, pH 7.4, probe ethoxyresorufin (5 μM), % inhibition of CYP1A1 in Saccharosomes at 10 μM, 10 μM test compound, 5 μM ethoxyresorufin) was over 80%. Also, the inhibition at 20 µM against CYP2C18 is 63%. For the same molecule, the pIC50 against CYP2D6 was 5.15. This molecule gave an inhibition at 20 µM at CYP2D6 (human, Saccharosomes containing CYP2D6, 20 μM) of 84%.
